“Also recorded” adds a separate entry of the source. Counter-ions that a name gives are not always drawn. Like-named read-outs stand apart in the source and are kept apart here.
Columns and labels:
[1] = Stability of drugs and suspensions after gamma irradiation (chromatographic analysis)
Protocol: Aseptic formulation of thixotropic pharmaceutical compositions was conducted in accordance with the teachings of the present invention as follows. […] Following the sizing operation, each individual drug was divided into lots, which were then placed in an atmosphere of either argon or air. Each lot was then sterilized using 1.0 or 2.5 Mrad of gamma radiation applied to the lots of each drug under argon or air. Concomitantly, colloidal silicon dioxide was sterilized using dry heat while perfluorodecalin was sterile filtered. The three components were then combined aseptically and blended using a high shear dispenser. The thixotropic pharmaceutical compositions were then analyzed by chromatographic techniques to determine the effect of gamma radiation on the stability of the ten drugs sterilized either in air or in the argon environment.

[2] = cited from earlier work; for Density / Kin. viscosity / Specific heat / Surface tension: 25° C.; for Boiling point: ambient pressure
rabbit eyes [3] = system: rabbit eyes
Protocol: As a control, an aqueous solution containing the same amount of drug was prepared. The final concentration of the brimonidine in both formulations was 0.1% w/v. The nonaqueous thixotropic compositions of the present invention were administered in a low dose volume of 8 μl, while the prior art aqueous control was administered in a volume of 50 μl. The drugs were administered to one eye of the rabbit with both eyes subsequently monitored for changes in intraocular pressure.

glaucomatous monkeys [4] = assay: Intraocular pressure after levo-bunolol in conscious, glaucomatous monkeys; format: in vivo, monkey; conditions: 0.25% w/v, 8 μl thixotropic versus approximately 35 μl aqueous
Protocol: (§1) To illustrate the high localized drug bioavailability and correspondingly low systemic side effects of the present invention, a pharmacology study was conducted on conscious, glaucomatous monkeys. Formulations of 0.25% w/v levo-bunolol, used to reduce intraocular pressure in glaucoma patients, were administered as an aqueous solution and as a thixotropic pharmaceutical composition made in accordance with the teachings of the present invention. The monkeys were monitored for reductions in intraocular pressure, indicating the desired localized drug action, and for changes in heart rate, indicating undesirable drug migration away from the target site and into the systemic circulation. The thixotropic compositions were administered in low dose volume 8 μl drops while the aqueous formulations were administered in prior art drop volumes of approximately 35 μl. FIG. 13A is the mean reduction in heart rate for the monkeys treated with the aqueous solution of the drug while FIG. 13B is the mean reduction in heart rate for the monkeys treated with the nonaqueous formulation.

glaucomatous monkeys [5] = assay: Heart rate after topical levo-bunolol in conscious, glaucomatous monkeys; format: in vivo, monkey
Protocol: as §1

[6] = system: eyes of New Zealand albino rabbits; assay: Ocular toxicity of CSD in perfluorodecalin, gross and slit lamp examination; format: in vivo, rabbit
Protocol: More specifically, CSD dispersions of 2% w/v, 1% w/v and 0.5% w/v were prepared as in Example 1 and topically administered to the rabbits six times, at one hour intervals. Dose volumes of 8 μl were used for each dispersion along with a perfluorodecalin control. Following the six topical installations, each of the eyes was subjected to gross and slit lamp examination.

[7] = Flow curve analysis fitted to the Cross model (viscosity, yield stress); format: physicochemical
Protocol: In order to determine the stress threshold at which the CSD network collapsed, stress sweeps were run on the five dispersions formulated in Example 1. The stress sweeps were conducted using a Carri-med and CNMR CS 100 rheometer with an optical encoder upgrade. The measuring geometry for all the CSD/perfluorodecalin dispersions was a 4 cm SS Flat Plate with solvent trap. The gap, selected after conducting probe studies using the 2.5% w/v CSD/perfluorodecalin dispersion, was set at 250 μm for the stress sweeps. The measuring geometry for perfluorodecalin was a recessed concentric cylinder and cup set at a 4 mm gap. These stress studies were run at 15° C. to minimize the evaporation of perfluorodecalin. For longer experiments (greater than 10 minutes), a cover was placed over the Flat Plate to prevent perfluorodecalin vaporization. FIG. 1 plots delta versus shear stress for each of the dispersions. Delta is the phase of the actual curve relative to the applied sinusoidal stress. […] This stress threshold is CSD concentration dependent and indicates the presence of an elastic three-dimensional network at low or resting stresses (i.e. low delta values). […]
To further characterize the rheology of the dispersions formulated in Example 1, complete flow curves, fit to the Cross model, were generated over a broad range of shear rates. […] Yield stresses were calculated from flow curve data.

CHO cells = assay: Chinese hamster ovary (CHO) clonal cytotoxicity assay; format: cell-based; conditions: three-hour exposure
Protocol: To confirm the lack of toxicity associated with the thixotropic compositions of the present invention, a Chinese hamster ovary (CHO) clonal assay was performed to measure the cytotoxic effects of CSD and perfluorodecalin on cell viability. As is well-known in the art, the CHO clonal assay is extremely sensitive and is often used to test pharmaceutical composition toxicity. Different cell populations were exposed to 0.5% w/v CSD in perfluorodecalin, and from 0.01% to 0.1% w/v AGN 191053 dispersed in a suspension of 0.5% w/v CSD in perfluorodecalin. Straight perfluorodecalin was used as a negative control with a three-hour exposure period for each formulation tested.

rabbit eyes [8] = assay: Pupil diameter change after pilocarpine; format: in vivo
Protocol: Three different concentrations of pilocarpine were formulated as prior art aqueous solutions and as exemplary nonaqueous thixotropic pharmaceutical compositions according to the teachings of the present invention. Specifically, aqueous solutions and nonaqueous suspensions of 0, 0.1%, 0.5% and 2% pilocarpine were formulated under sterile conditions. The nonaqueous drug suspensions were made using 0.5% CSD uniformly dispersed in perfluorodecalin. Both sets of formulations were administered to rabbit eyes in drop volumes of 8 μl using positive displacement pipettes. Changes in pupil diameter were monitored with three rabbits being used for each concentration of each formulation. In particular, FIG. 12A illustrates the effects of the three different concentrations of […] administered using the nonaqueous vehicle while FIG. 12B illustrates equivalent data for the prior art solubilized aqueous pilocarpine.

[9] = 1.0 or 2.5 Mrad, under argon or air

Q: For `Brc1c(NC2=NCCN2)ccc2nccnc12` [AGN 190342], which “activity lost after gamma radiation” value [1] is on record?
A: Its value is “No more than 5%”.

Q: With `FC1(F)C(F)(F)C(F)(F)C2(F)C(F)(C1(F)F)C(F)(F)C(F)(F)C1(F)C(F)(F)C(F)(F)C(F)(F)C(F)(F)C12F` (centres unmarked) [PPP, perfluoroperhydrophenanthrene] as the molecule, how does the Density [2] read?
A: The Density was 2.016 gms/mL.

Q: And the Kin. viscosity [2]?
A: The Kin. viscosity was 8.0 cSt.

Q: What about the Specific heat [2] of the same molecule?
A: Its Specific heat is 0.27 g-cal/gm.

Q: And the Surface tension [2]?
A: The Surface tension was 21.6 dynes/cm.

Q: What about the Boiling point [2] of the same molecule?
A: Its Boiling point is 215 °C.

Q: Which results are given for `O` [Water]?
A: Density [2]: 1.000 gms/mL; Kin. viscosity [2]: 1.00 cSt; Specific heat [2]: 1.00 g-cal/gm; Surface tension [2]: 72.0 dynes/cm

Q: What does the source list for `Brc1c(NC2=NCCN2)ccc2nccnc12` [brimonidine]?
A: peak mean intraocular pressure reduction, treated eye (rabbit eyes [3]; 0.1% w/v, 8 μl thixotropic versus 50 μl aqueous): comparable to the much larger aqueous based prior art dosage; intraocular pressure response, untreated eye (rabbit eyes [3]; aqueous solution 0.1% w/v, 50 μl): undesirable pressure reduction in untreated eyes; intraocular pressure response, untreated eye (rabbit eyes [3]; thixotropic composition 0.1% w/v, 8 μl, versus aqueous control): significantly less intraocular pressure response in the untreated eye; also recorded: significant lower decrease in intraocular pressure in the untreated eyes

Q: With `CNCC(O)c1ccc(OC(=O)C(C)(C)C)c(OC(=O)C(C)(C)C)c1` (centres unmarked) [dipivalylepinephrine HCl] as the molecule, how does the “activity lost after gamma radiation” value [1] read?
A: The value was “No more than 5%”.

Q: Which “activity lost after gamma radiation” value [1] does the source give for `CC(C)(C)NC[C@H](O)COc1cccc2c1CCCC2=O` [levo-bunolol HCl] here?
A: The value was “No more than 5%”.

Q: Which “reduction in intraocular pressure, thixotropic versus aqueous” value (glaucomatous monkeys [4]) does the source give for `CC(C)(C)NC[C@H](O)COc1cccc2c1CCCC2=O` [levo-bunolol] here?
A: The value was “almost identical”.

Q: What about the “decrease in heart rate, thixotropic relative to aqueous solution” value (glaucomatous monkeys [5]; 0.25% w/v, 8 μl thixotropic versus approximately 35 μl aqueous) of the same molecule?
A: Its value is 65%.

Q: And the heart rate response (glaucomatous monkeys [5]; prior art aqueous delivery vehicle)?
A: Its heart rate response is “undesirable decrease in heart rate”.

Q: With `CC1COc2c(N3CCN(C)CC3)c(F)cc3c(=O)c(C(=O)O)cn1c23` (centres unmarked) [ofloxacin] as the molecule, how does the “activity lost after gamma radiation” value [1] read?
A: The value was “No more than 5%”.

Q: With `FC1(F)C(F)(F)C(F)(F)C2(F)C(F)(F)C(F)(F)C(F)(F)C(F)(F)C2(F)C1(F)F` (centres unmarked) [perfluorodecalin, Perfluoro(decahydronaphthalene)] as the molecule, how does the “toxicity (cornea)” value ([6]; 6 topical doses of 8 μl at one hour intervals) read?
A: Its value is “no discomfort, irritation, or toxicity”.

Q: And the eye discomfort ([6]; rabbit, in vivo)?
A: The eye discomfort was “no discomfort, irritation, or toxicity”.

Q: And the “irritation (conjunctiva)” value ([6]; rabbit, in vivo)?
A: The value was “no discomfort, irritation, or toxicity”.

Q: What about the “viscosity of pure perfluorodecalin without CSD” value [7] of the same molecule?
A: Its value is 9.2 centipoise.

Q: What about the Newtonian viscosity ([7]; 0% CSD) of the same molecule?
A: Its Newtonian viscosity is 0.092 poise.

Q: And the “chemical toxicity to CHO cells” value (CHO cells)?
A: The value was “Neither the perfluorodecalin nor the CSD/perfluorodecalin formulations exhibited any chemical toxicity”.

Q: And the Density [2]?
A: Its Density is 1.929 gms/mL.

Q: What about the Kin. viscosity [2] of the same molecule?
A: The Kin. viscosity was 2.9 cSt.

Q: What about the Specific heat [2] of the same molecule?
A: Its Specific heat is 0.22 g-cal/gm.

Q: What about the Surface tension [2] of the same molecule?
A: Its Surface tension is 19.3 dynes/cm.

Q: And the Boiling point [2]?
A: The Boiling point was 142 °C.

Q: What about the specific gravity ([2]; used to convert drop weight to volume) of the same molecule?
A: The specific gravity was 1.93 g/mL.

Q: For `CC[C@@H]1C(=O)OC[C@@H]1Cc1cncn1C` [pilocarpine], which “recovery period of pupil diameter” value (rabbit eyes [8]; nonaqueous formulation versus aqueous) is on record?
A: Its value is “prolonged recovery period”.

Q: And the “reduction in pupil size” value (rabbit eyes [8]; nonaqueous thixotropic versus aqueous, equivalent drug concentrations, 8 μl)?
A: The value was “greater pharmaceutical effect, i.e. a reduction in pupil size”.

Q: For `CC(=O)OCC(=O)[C@@]1(O)CC[C@H]2[C@@H]3CCC4=CC(=O)C=C[C@]4(C)[C@H]3[C@@H](O)C[C@@]21C` [prednisolone acetate], which “activity lost after gamma radiation” value [1, 9] is on record?
A: Its value is “No more than 5%”.

Q: Which “activity lost after gamma radiation” value [1] does the source give for `Cc1nnc(SCC2=C(C(=O)O)N3C(=O)[C@@H](NC(=O)Cn4cnnn4)[C@H]3SC2)s1` [sodium cephazolin] here?
A: The value was “No more than 5%”.

Q: With `O=C(O)c1cc(=O)c2c(OCC(O)COc3cccc4oc(C(=O)O)cc(=O)c34)cccc2o1` [sodium cromoglycate] as the molecule, how does the “activity lost after gamma radiation” value [1] read?
A: The value was “No more than 5%”.

Q: Which “activity lost after gamma radiation” value [1] does the source give for `CC(C(=O)O)c1ccc(-c2ccccc2)c(F)c1` (centres unmarked) [sodium flurbiprofen] here?
A: The value was “No more than 5%”.

Q: For `CC(C)(C)NC[C@H](O)COc1nsnc1N1CCOCC1` [timolol], which “activity lost after gamma radiation” value [1, 9] is on record?
A: Its value is “No more than 5%”.

Source: patent publication US5480914A, “Nonaqueous thixotropic drug delivery suspensions and methods of their use” (priority 1994, dated 1996)
